# Measured values as given in patent US9034906B2, “EP4 agonist” (Asahi Glass Company, Limited, priority 2008, dated 2015).
# How the values were obtained:
# [1] = In vitro metabolic stability: NADPH-independent β oxidation reaction in rat liver mitochondria fraction; type: in vitro ADME; details: 37° C., 30 min, tested as isomer mixtures, average±SD of 3 experiments
# Method: A mixture of the compound F and compound J of the present invention described in Table 1 (F:J=52:41, synthesized in Example 14), and a mixture of compounds wherein the tetrazole groups at C-1 of compound F and compound J are respectively substituted by carboxylic acid (referred to as carboxylate form, F:J=54:34, synthesized in Example 15) were tested.
# First, a mitochondria fraction was prepared from the rat liver according to the following Reference A. Then, in reference to the method of […] et al. described in the following References B and C, an NADPH-independent β oxidation reaction was studied. The reaction was carried out at 37° C. for 30 min, and stopped with a methanol solution containing a suitable internal standard substance. Each compound was quantified by the internal standard method using a high performance liquid chromatography mass spectrometry apparatus (LC-MS/MS). The compound residual ratio after metabolic reaction of compounds F, J and each carboxylate form thereof in rat mitochondria fraction is shown in the following Table 2 in average±standard deviation of 3 experiments.
# [2] = test system: dextran sodium sulfate-induced colitis; assay: Dextran sodium sulfate-induced colitis model in mice (BALB/c), prophylactic; type: in vivo, mouse; details: 2.2 w/v % DSS
# Excerpt: The prophylactic effect of compound F on ulcerative colitis was examined in dextran sodium sulfate-induced colitis model.
# Female BALB/c mice (6 weeks old, Japan SLC) were purchased, acclimated for 1 week and used for the study. Except the normal group, the mice were allowed to freely drink a dextran sodium sulfate (to be abbreviated as DSS, MP Biochemicals, M.W. 36,000-50,000, Lot No. 3439J) solution prepared to 2.2 w/v % for 9 days to induce colitis. Compound F was orally administered at doses of 0.1, 0.3 and 1 mg/kg, once a day, daily, from the start day of DSS drinking (day 0) to one day before autopsy (day 9). To the control group was orally administered a solvent (1 vol % ethanol solution) at 10 mL/kg in the same manner.
# Thus, to determine the level of diarrhea, the stool was graded into 6 levels; normal (score 0), spherical stool being not less than 50% (score 1), banana-shaped stool being less than 50% (score 2), banana-shaped stool being not less than 50% (score 3), muddy stool (score 4), watery stool (score 6) (stool consistency score). The fecal occult blood (including proctorrhagia) was graded using fecal occult blood slide 5 Shionogi II (Shionogi & Co., Ltd.) into 6 levels; negative (no change of the slide color from yellow, score 0), weakly positive (slightly blue green, score 1), positive (blue green, score 2), moderately positive (clear blue green, score 3), strongly positive (instantaneous color change to dark blue with color developer, score 4), and proctorrhagia (score 5). The sum of the stool consistency score and occult blood score was defined as the stool score. Eight to 10 animals were used for each group, and the results were expressed as average±standard deviation. On the day of autopsy, after laparotomy under ether anesthesia and blood collection, the mice were exsanguinated to death. Then the large intestines were dissected from just below the cecum to the anus and the length thereof was measured.
# [3] = test system: dextran sodium sulfate-induced colitis; assay: Remission/relapse model of dextran sodium sulfate-induced colitis in mice, therapeutic; type: in vivo, mouse; details: compound F 1 mg/kg, SASP 100 mg/kg, oral once a day for 50 days
# Excerpt: Next, therapeutic effect of compound F on colitis was studied in a chronic model. Female BALB/c mice, 6 weeks old, body weight about 20 g (Japan SLC) were purchased, acclimated for 1 week and used for the study. The mice were divided into a colitis induction group and a normal group. The colitis induction group was allowed to freely drink a 2.6 w/v % DSS (MP Biochemicals, M.W. 36,000-50,000, Lot No. 4556J) solution to induce colitis. On day 8 when the stool score (defined in Example 23) of the colitis induction group reached about 4.5, the mice were subdivided into a control group, a compound F 1 mg/kg administration group and a salazosulfapyridine (SIGMA, Lot No. 085K1930, hereinafter to be abbreviated as SASP) 100 mg/kg administration group. Then the mice were allowed to freely drink distilled water instead of DSS solution for 9 days (remission period). After the grouping, the stool score was evaluated every 3-4 days. […]
# Compound F at a dose of 1 mg/kg and SASP at a dose of 100 mg/kg were orally administered once a day, daily, for 50 days from the initial remission period (day 8 from the start of 2.6 w/v % DSS drinking) to the fifth remission period (day 57 from the start of 2.6 w/v % DSS drinking). […] The remission ratio (%) was calculated as a ratio of mice in remission in each group. […]
smiles,measurement,setting,value
"Cc1cccc([C@@H](C)[C@H](O)/C=C/[C@@H]2[C@@H]3[C@H](C[C@H]2O)O/C(=C\CCCc2nnn[nH]2)C3(F)F)c1 [Compound F, 4-[(Z)-(1S,5R,6R,7R)-6-[(1E,3R,4R)-3-hydroxy-4-(m-tolyl)-1-pentenyl]-7-hydroxy-2-oxa-4,4-difluoro-bicyclo[3.3.0]octan-3-ylidene]-1-(tetrazol-5-yl)butane]",Residual ratio of parent compound after β-oxidation reaction,[1],91.6 ± 6.8%
same,Suppression of the increase in the stool score,[2]; oral 0.1 mg/kg once a day,suppressive tendency
same,Effect on shortening of the large intestine,"[2]; oral 0.1, 0.3 and 1 mg/kg once a day",dose-dependent suppressive effect
same,Suppression of the increase in the stool score,[2]; oral 0.3 and 1 mg/kg once a day,significant
same,Effect on stool score in remission and relapse periods,[3],"decreased the stool score early in the remission period, and suppressed an increase in the score in the relapse period"
